Measured values as given in PubChem BioAssay (NCI).
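Test compounds were applied to cells in 96-well plates for 48 hours at 5 doses. Here, GI50 denotes the concentration required for 50% inhibition of growth. Definition used: TGI = concentration required for complete inhibition of growth.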

How the values were obtained:
Test in all cases: NCI anticancer screen, dose series, 48 h
786-0 renal = system: 786-0 renal
A498 renal = system: A498 renal
A549 NSCLC = system: A549 NSCLC
ACHN renal = system: ACHN renal
BT-549 breast = system: BT-549 breast
CAKI-1 renal = system: CAKI-1 renal
CCRF-CEM leukemia = system: CCRF-CEM leukemia
COLO 205 colon = system: COLO 205 colon
DU-145 prostate = system: DU-145 prostate
EKVX NSCLC = system: EKVX NSCLC
HCC-2998 colon = system: HCC-2998 colon
HCT-116 colon = system: HCT-116 colon
HCT-15 colon = system: HCT-15 colon
HL-60(TB) leukemia = system: HL-60(TB) leukemia
HOP-62 NSCLC = system: HOP-62 NSCLC
HOP-92 NSCLC = system: HOP-92 NSCLC
HS 578T breast = system: HS 578T breast
HT29 colon = system: HT29 colon
IGROV1 ovarian = system: IGROV1 ovarian
K-562 leukemia = system: K-562 leukemia
KM12 colon = system: KM12 colon
LOX IMVI melanoma = system: LOX IMVI melanoma
M14 melanoma = system: M14 melanoma
MALME-3M melanoma = system: MALME-3M melanoma
MCF7 breast = system: MCF7 breast
MDA-MB-231 breast = system: MDA-MB-231 breast
MDA-MB-435 = system: MDA-MB-435
MDA-MB-468 breast = system: MDA-MB-468 breast
MOLT-4 leukemia = system: MOLT-4 leukemia

## O=c1cc(-c2ccccc2)oc2cc(OCCCNCc3ccccc3)cc(O)c12
786-0 renal
  GI50: 2.98 µM
  TGI: 15.5 µM
A498 renal
  GI50: 3.94 µM
  TGI: 16.9 µM
A549 NSCLC
  GI50: 4.33 µM
  TGI: 46.4 µM
ACHN renal
  GI50: 3.42 µM
  TGI: 14.2 µM
BT-549 breast
  GI50: 8.5 µM
  TGI: 22.2 µM
CAKI-1 renal
  GI50: 2.41 µM
  TGI: 11 µM
CCRF-CEM leukemia
  GI50: 5.29 µM
  TGI: > 100 µM
COLO 205 colon
  GI50: 1.98 µM
  TGI: 3.82 µM
DU-145 prostate
  GI50: 7.59 µM
  TGI: 20.4 µM
EKVX NSCLC
  GI50: 13.8 µM
  TGI: 36.4 µM
HCC-2998 colon
  GI50: 1.91 µM
  TGI: 3.64 µM
HCT-116 colon
  GI50: 3.72 µM
  TGI: 27.7 µM
HCT-15 colon
  GI50: 3.54 µM
  TGI: 13.1 µM
HL-60(TB) leukemia
  GI50: 1.89 µM
  TGI: 5.03 µM
HOP-62 NSCLC
  GI50: 11.5 µM
  TGI: 44.4 µM
HOP-92 NSCLC
  GI50: 1.56 µM
  TGI: 17.1 µM
HS 578T breast
  GI50: 4.08 µM
  TGI: 33.7 µM
HT29 colon
  GI50: 3.15 µM
  TGI: 27.3 µM
IGROV1 ovarian
  GI50: 3.37 µM
  TGI: 15.7 µM
K-562 leukemia
  GI50: 3.16 µM
  TGI: > 100 µM
KM12 colon
  GI50: 3.77 µM
  TGI: 14.5 µM
LOX IMVI melanoma
  GI50: 1.84 µM
  TGI: 3.92 µM
M14 melanoma
  GI50: 2.64 µM
  TGI: 6.88 µM
MALME-3M melanoma
  GI50: 1.53 µM
  TGI: 3.2 µM
MCF7 breast
  GI50: 2.61 µM
  TGI: 10.3 µM
MDA-MB-231 breast
  GI50: 2.89 µM
  TGI: 12.9 µM
MDA-MB-435
  GI50: 10.1 µM
  TGI: 21.7 µM
MDA-MB-468 breast
  GI50: 2.08 µM
  TGI: 5.21 µM
MOLT-4 leukemia
  GI50: 3.53 µM
  TGI: > 100 µM
